Measured values taken from US10695337B2, “Piperidin-4-yl azetidine derivatives as JAK1 inhibitors” (Incyte Corporation, priority 2010, dated 2020).

Biological target: human JAK1 (a.a. 837-1142)
Test: In vitro JAK kinase assay (HTRF, phosphorylation of a biotinylated peptide), JAK1
Format: biochemical
Details: measured at 1 mM ATP; JAK2 IC50 / JAK1 IC50
Summary of the method: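 N-terminally His-tagged catalytic domains, baculovirus-expressed in insect cells and purified, were used as enzyme. Reactions ran 1 hr at room temperature and were stopped with a mix of 45 mM EDTA, 300 nM SA-APC and 6 nM Eu-Py20. The HTRF signal was read after 40 min of antibody binding.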

SMILES	IC50 Ratio JAK2/JAK1
Cc1nc(C(F)(F)F)ccc1NC(=O)N1CCC(N2CC(CC#N)(n3cc(-c4ncnc5[nH]ccc45)cn3)C2)CC1 [Example 205, 4-{3-(cyanomethyl)-3-[4-(7H-pyrrolo[2,3-d]pyrimidin-4-yl)-1H-pyrazol-1-yl]azetidin-1-yl}-N-[2-methyl-6-(trifluoromethyl)pyridin-3-yl]piperidine-1-carboxamide]	4.4
COC(=O)c1ccccc1NC(=O)N1CCC(N2CC(CC#N)(n3cc(-c4ncnc5[nH]ccc45)cn3)C2)CC1 [Example 206, methyl 2-{[(4-{3-(cyanomethyl)-3-[4-(7H-pyrrolo[2,3-d]pyrimidin-4-yl)-1H-pyrazol-1-yl]azetidin-1-yl}piperidin-1-yl)carbonyl]amino}benzoate]	1.6
COC(=O)c1cc(F)ccc1NC(=O)N1CCC(N2CC(CC#N)(n3cc(-c4ncnc5[nH]ccc45)cn3)C2)CC1 [Example 207, methyl 2-{[(4-{3-(cyanomethyl)-3-[4-(7H-pyrrolo[2,3-d]pyrimidin-4-yl)-1H-pyrazol-1-yl]azetidin-1-yl}piperidin-1-yl)carbonyl]amino}-5-fluorobenzoate]	2.5
COC(=O)c1ccc(NC(=O)N2CCC(N3CC(CC#N)(n4cc(-c5ncnc6[nH]ccc56)cn4)C3)CC2)c(F)c1 [Example 208, methyl 4-{[(4-{3-(cyanomethyl)-3-[4-(7H-pyrrolo[2,3-d]pyrimidin-4-yl)-1H-pyrazol-1-yl]azetidin-1-yl}piperidin-1-yl)carbonyl]amino}-3-fluorobenzoate]	4.8
N#CCC1(n2cc(-c3ncnc4[nH]ccc34)cn2)CN(C2CCN(Cc3cc(Cl)cc(Cl)c3)CC2)C1 [Example 210, {1-[1-(3,5-dichlorobenzyl)piperidin-4-yl]-3-[4-(7H-pyrrolo[2,3-d]pyrimidin-4-yl)-1H-pyrazol-1-yl]azetidin-3-yl}acetonitrile]	4.3
N#CCC1(n2cc(-c3ncnc4[nH]ccc34)cn2)CN(C2CCN(Cc3cc4ccccc4nc3Cl)CC2)C1 [Example 214, {1-{1-[(2-chloroquinolin-3-yl)methyl]piperidin-4-yl}-3-[4-(7H-pyrrolo[2,3-d]pyrimidin-4-yl)-1H-pyrazol-1-yl]azetidin-3-yl}acetonitrile]	2.5

Further lines, results first:

IC50 Ratio JAK2/JAK1	SMILES
19.0	CN(C)c1ccc(CN2CCC(N3CC(CC#N)(n4cc(-c5ncnc6[nH]ccc56)cn4)C3)CC2)c(F)c1C#N [Example 209, 3-[(4-{3-(Cyanomethyl)-3-[4-(7H-pyrrolo[2,3-d]pyrimidin-4-yl)-1H-pyrazol-1-yl]azetidin-1-yl}piperidin-1-yl)methyl]-6-(dimethylamino)-2-fluorobenzonitrile]
5.0	N#CCC1(n2cc(-c3ncnc4[nH]ccc34)cn2)CN(C2CCN(Cc3cc(C(F)(F)F)ccc3Cl)CC2)C1 [Example 211, {1-{1-[2-chloro-5-(trifluoromethyl)benzyl]piperidin-4-yl}-3-[4-(7H-pyrrolo[2,3-d]pyrimidin-4-yl)-1H-pyrazol-1-yl]azetidin-3-yl}acetonitrile]
7.8	N#CCC1(n2cc(-c3ncnc4[nH]ccc34)cn2)CN(C2CCN(Cc3cccc(C(F)(F)F)c3F)CC2)C1 [Example 212, {1-{1-[2-fluoro-3-(trifluoromethyl)benzyl]piperidin-4-yl}-3-[4-(7H-pyrrolo[2,3-d]pyrimidin-4-yl)-1H-pyrazol-1-yl]azetidin-3-yl}acetonitrile]
9.7	N#CCC1(n2cc(-c3ncnc4[nH]ccc34)cn2)CN(C2CCN(Cc3c(F)cccc3C(F)(F)F)CC2)C1 [Example 213, {1-{1-[2-fluoro-6-(trifluoromethyl)benzyl]piperidin-4-yl}-3-[4-(7H-pyrrolo[2,3-d]pyrimidin-4-yl)-1H-pyrazol-1-yl]azetidin-3-yl}acetonitrile]
5.7	N#CCC1(n2cc(-c3ncnc4[nH]ccc34)cn2)CN(C2CCN(Cc3cc(F)cc(F)c3)CC2)C1 [Example 215, {1-[1-(3,5-difluorobenzyl)piperidin-4-yl]-3-[4-(7H-pyrrolo[2,3-d]pyrimidin-4-yl)-1H-pyrazol-1-yl]azetidin-3-yl}acetonitrile]
